Laboratory results from ChEMBL document CHEMBL5038628, “Discovery of spiro amide SHR902275: A potent, selective, and efficacious RAF inhibitor targeting RAS mutant cancers” (Eur J Med Chem, 2022).
pIC50: −log10 of the molar value. In brackets after ≈: the same amount, converted by molar mass. Activity calls are given as the source filed them. The calls are words filed in the database; no cut-off is given here.

Assays:
[1] = Cmax in Sprague-Dawley rat assessed as parent compound at 24 mg/kg, IG by LC-MS/MS analysis; format: ADME, organism-based, Plasma; set-up: route […], dose 24 mg/kg; conditions: in vivo, po
[2] = Cmax in Sprague-Dawley rat plasma assessed as parent compound at 121 mg/kg, IG by LC-MS/MS analysis; format: ADME, organism-based; set-up: route […], dose 121 mg/kg; conditions: in vivo, po
[3] = AUC (0-t) in Sprague-Dawley rat plasma assessed as parent compound at 121 mg/kg, IG by LC-MS/MS analysis; format: ADME, organism-based; set-up: dose 121 mg/kg; conditions: in vivo, po
[4] = Solubility of the compound at pH 7.4; conditions: buffer
NCI-H358 = test: Cytotoxicity against human NCI-H358 cells assessed as inhibition of growth measured after 72 hrs by CellTiter-Glo luciferase assay; format: functional
Calu-6 [5] = test: Antitumor activity against human Calu-6 cells xenografted in nude mouse assessed as tumor growth inhibition at 30 mg/kg,IT QD for 12 days relative to control; format: functional; conditions: Calu-6, 288 h, time 12 day, read-out: TGI
[6] = target: RAF proto-oncogene serine/threonine-protein kinase (Homo sapiens, UniProt P04049); test: Inhibition of human recombinant cRAF measured after 60 mins by TR-FRET assay
Chain of RAF proto-oncogene serine/threonine-protein kinase (P04049 whole entry): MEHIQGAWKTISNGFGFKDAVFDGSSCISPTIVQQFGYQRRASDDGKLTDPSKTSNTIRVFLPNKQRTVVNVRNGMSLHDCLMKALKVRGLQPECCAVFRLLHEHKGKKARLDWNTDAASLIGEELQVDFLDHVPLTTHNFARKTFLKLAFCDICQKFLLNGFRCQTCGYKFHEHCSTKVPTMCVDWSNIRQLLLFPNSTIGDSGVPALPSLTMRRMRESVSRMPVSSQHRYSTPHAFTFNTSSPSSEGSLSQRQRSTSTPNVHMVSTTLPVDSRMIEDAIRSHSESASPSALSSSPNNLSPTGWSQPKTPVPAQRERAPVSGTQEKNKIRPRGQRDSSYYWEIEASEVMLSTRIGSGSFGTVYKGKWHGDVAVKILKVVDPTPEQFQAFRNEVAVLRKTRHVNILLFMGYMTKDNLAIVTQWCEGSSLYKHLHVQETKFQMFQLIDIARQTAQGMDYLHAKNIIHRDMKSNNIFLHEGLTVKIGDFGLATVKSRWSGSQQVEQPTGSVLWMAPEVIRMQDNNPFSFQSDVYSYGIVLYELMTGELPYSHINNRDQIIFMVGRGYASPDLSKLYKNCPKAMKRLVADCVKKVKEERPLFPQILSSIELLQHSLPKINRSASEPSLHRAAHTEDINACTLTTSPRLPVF

Cytochrome P450 3A4 [7] = target: T1, Cytochrome P450 3A4 (Homo sapiens, UniProt P08684); test: Inhibition of CYP3A4 (unknown origin) using midazolam as substrate
T1 sequence (P08684 whole entry): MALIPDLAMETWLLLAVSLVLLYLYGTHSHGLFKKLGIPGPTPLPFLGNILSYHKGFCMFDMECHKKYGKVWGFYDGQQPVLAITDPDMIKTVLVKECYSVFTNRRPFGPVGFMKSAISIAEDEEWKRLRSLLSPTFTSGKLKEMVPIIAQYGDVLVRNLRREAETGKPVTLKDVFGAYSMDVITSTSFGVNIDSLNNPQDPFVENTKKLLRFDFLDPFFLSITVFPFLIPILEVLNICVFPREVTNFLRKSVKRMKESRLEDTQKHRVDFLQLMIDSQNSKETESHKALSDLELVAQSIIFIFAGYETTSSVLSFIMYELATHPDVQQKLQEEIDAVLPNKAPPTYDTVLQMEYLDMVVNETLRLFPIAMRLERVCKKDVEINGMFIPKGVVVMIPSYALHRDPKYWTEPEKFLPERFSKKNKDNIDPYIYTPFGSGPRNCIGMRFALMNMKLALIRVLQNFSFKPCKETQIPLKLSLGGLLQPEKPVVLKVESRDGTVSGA

[8] = Apparent permeability across basolateral to apical membrane in human Caco-2 cells
[9] = Apparent permeability across apical to basolateral membrane in human Caco-2 cells
Cytochrome P450 2C19 = Cytochrome P450 2C19 (Homo sapiens, UniProt P33261); test: Inhibition of CYP2C19 (unknown origin)
[10] = target: Serine/threonine-protein kinase B-raf (Homo sapiens, UniProt P15056, V600E); test: Inhibition of human recombinant BRAF V600E mutant measured after 60 mins by TR-FRET assay
Chain of Serine/threonine-protein kinase B-raf (Homo sapiens, UniProt P15056, V600E) (P15056 2-766 V600E limits assumed): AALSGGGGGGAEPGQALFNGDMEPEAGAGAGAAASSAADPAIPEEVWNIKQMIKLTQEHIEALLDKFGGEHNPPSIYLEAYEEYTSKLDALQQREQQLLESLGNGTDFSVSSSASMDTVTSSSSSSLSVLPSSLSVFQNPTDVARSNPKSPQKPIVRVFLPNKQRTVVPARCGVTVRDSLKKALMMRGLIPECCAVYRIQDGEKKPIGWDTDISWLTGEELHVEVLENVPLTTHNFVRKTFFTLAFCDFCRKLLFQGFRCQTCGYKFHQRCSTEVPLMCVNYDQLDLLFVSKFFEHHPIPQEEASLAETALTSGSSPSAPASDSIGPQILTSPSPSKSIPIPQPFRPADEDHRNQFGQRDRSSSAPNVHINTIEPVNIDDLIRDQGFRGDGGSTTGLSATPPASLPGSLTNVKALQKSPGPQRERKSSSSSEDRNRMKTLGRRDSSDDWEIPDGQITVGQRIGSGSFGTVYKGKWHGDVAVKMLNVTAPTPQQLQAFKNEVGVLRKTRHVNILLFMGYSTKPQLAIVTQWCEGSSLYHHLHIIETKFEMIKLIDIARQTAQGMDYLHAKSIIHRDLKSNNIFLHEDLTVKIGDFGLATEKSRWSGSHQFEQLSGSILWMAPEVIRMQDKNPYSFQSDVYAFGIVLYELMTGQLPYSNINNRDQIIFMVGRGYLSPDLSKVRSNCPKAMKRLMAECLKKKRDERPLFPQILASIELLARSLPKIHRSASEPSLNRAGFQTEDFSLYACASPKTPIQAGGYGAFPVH

[11] = target: Voltage-gated inwardly rectifying potassium channel KCNH2 (Homo sapiens, UniProt Q12809)
Chain of Voltage-gated inwardly rectifying potassium channel KCNH2 (Q12809 whole entry): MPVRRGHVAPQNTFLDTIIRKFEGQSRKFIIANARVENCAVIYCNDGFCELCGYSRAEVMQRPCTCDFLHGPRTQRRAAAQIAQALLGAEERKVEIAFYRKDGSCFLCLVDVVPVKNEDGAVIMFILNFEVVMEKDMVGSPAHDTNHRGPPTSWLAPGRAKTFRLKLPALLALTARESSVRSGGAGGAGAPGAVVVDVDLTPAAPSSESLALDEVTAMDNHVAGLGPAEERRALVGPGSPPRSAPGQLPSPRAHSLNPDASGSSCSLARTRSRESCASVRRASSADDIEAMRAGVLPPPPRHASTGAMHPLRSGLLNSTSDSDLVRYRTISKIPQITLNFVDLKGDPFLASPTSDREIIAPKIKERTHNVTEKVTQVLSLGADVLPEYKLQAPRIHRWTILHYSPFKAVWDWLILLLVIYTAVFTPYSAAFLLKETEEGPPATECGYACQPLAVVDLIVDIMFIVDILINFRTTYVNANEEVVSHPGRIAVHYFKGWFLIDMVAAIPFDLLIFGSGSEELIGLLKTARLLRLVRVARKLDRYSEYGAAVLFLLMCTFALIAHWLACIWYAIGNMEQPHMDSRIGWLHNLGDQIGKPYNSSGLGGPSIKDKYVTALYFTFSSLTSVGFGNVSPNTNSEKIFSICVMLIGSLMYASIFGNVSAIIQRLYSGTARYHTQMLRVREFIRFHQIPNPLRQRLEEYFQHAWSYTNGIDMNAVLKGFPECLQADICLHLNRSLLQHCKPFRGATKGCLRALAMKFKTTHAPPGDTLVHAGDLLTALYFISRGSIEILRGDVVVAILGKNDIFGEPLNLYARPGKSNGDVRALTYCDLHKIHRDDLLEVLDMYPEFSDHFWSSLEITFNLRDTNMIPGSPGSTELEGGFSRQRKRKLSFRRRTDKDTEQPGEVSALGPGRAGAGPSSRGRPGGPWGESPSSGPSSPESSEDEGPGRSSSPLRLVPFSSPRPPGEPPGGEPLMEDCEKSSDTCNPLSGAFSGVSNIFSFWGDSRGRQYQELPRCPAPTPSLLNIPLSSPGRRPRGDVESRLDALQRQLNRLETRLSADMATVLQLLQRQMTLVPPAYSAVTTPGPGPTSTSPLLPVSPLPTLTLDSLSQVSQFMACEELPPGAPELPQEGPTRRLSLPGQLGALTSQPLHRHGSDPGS

[12] = Fraction unbound in mouse plasma; format: ADME, cell-free
Cytochrome P450 2D6 = Cytochrome P450 2D6 (Homo sapiens, UniProt P10635); test: Inhibition of CYP2D6 (unknown origin)
Chain of Cytochrome P450 2D6 (P10635 whole entry): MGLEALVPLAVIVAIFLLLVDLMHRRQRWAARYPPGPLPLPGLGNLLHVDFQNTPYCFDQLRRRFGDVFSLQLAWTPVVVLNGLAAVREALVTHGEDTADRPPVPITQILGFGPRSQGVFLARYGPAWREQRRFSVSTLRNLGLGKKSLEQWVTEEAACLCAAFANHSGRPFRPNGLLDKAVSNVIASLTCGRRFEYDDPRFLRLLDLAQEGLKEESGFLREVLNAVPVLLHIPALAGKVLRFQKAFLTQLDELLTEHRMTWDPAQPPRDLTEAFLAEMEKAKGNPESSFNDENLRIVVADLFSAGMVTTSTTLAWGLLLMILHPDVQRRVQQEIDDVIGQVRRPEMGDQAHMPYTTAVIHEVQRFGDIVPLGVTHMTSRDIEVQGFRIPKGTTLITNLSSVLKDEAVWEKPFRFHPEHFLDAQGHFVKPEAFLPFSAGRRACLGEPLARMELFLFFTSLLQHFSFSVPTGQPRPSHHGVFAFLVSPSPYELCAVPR

[13] = Fraction unbound in human plasma; format: ADME, cell-free
[14] = Metabolic stability in rat liver microsomes assessed as half life; format: ADME, Microsome
[15] = Cmax in Sprague-Dawley rat plasma at 2 mg/kg, IG by LC-MS/MS analysis; format: ADME, organism-based; set-up: route […], dose 2 mg/kg; conditions: po
[16] = Oral bioavailability in Sprague-Dawley rat by LC-MS/MS analysis; format: ADME, organism-based; conditions: in vivo
SK-MEL-2 = test: Cytotoxicity against human SK-MEL-2 cells assessed as inhibition of growth measured after 72 hrs by CellTiter-Glo luciferase assay; format: functional
[17] = target: Serine/threonine-protein kinase B-raf (Homo sapiens, UniProt P15056); test: Inhibition of human recombinant wild type BRAF measured after 60 mins by TR-FRET assay
Chain of Serine/threonine-protein kinase B-raf (Homo sapiens, UniProt P15056) (P15056 whole entry): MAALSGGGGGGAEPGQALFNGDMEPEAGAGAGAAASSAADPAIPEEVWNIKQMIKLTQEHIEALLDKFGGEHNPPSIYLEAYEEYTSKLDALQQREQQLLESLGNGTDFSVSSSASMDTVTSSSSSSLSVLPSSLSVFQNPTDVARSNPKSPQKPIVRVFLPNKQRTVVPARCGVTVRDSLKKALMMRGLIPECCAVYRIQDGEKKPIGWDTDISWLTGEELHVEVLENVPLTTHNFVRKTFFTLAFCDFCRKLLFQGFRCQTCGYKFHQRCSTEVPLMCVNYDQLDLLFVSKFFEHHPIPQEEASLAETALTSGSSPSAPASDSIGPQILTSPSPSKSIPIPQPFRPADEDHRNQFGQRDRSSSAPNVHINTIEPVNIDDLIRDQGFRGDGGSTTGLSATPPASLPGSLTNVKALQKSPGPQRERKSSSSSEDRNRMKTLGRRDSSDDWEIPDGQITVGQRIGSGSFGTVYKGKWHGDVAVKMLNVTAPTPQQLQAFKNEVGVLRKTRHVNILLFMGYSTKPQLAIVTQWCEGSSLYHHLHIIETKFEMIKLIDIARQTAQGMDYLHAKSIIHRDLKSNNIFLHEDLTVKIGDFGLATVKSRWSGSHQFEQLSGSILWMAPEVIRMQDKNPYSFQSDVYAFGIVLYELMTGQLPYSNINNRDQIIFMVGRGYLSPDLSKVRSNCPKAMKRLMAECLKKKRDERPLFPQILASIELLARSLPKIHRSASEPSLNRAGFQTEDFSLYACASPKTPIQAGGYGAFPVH

Cytochrome P450 1A2 = target: T2, Cytochrome P450 1A2 (Homo sapiens, UniProt P05177); test: Inhibition of CYP1A2 (unknown origin)
T2 sequence (P05177 whole entry): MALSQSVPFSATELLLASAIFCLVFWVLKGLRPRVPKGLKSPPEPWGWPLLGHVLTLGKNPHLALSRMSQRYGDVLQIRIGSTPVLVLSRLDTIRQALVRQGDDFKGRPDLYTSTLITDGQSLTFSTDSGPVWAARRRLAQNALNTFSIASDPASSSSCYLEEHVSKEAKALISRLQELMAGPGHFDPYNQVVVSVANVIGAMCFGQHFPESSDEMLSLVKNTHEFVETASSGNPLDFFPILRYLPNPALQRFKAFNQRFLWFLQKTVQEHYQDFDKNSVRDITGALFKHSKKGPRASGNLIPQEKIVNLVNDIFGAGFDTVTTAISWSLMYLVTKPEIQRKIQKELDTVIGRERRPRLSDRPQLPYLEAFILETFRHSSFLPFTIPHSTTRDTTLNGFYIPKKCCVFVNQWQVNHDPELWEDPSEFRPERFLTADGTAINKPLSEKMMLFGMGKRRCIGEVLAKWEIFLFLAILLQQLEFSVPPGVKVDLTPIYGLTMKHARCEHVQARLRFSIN

[18] = Metabolic stability in mouse liver microsomes assessed as half life; format: ADME, Microsome
[19] = AUC (0 to t) in Sprague-Dawley rat plasma at 2 mg/kg, IG by LC-MS/MS analysis; format: ADME, organism-based; set-up: dose 2 mg/kg; conditions: po
[20] = Metabolic stability in human liver microsomes assessed as half life; format: ADME, Microsome
A-375 = test: Cytotoxicity against human A-375 cells assessed as inhibition of growth measured after 72 hrs by CellTiter-Glo luciferase assay; format: functional
Cytochrome P450 2C9 = Cytochrome P450 2C9 (Homo sapiens, UniProt P11712); test: Inhibition of CYP2C9 (unknown origin)
Chain of Cytochrome P450 2C9 (P11712 whole entry): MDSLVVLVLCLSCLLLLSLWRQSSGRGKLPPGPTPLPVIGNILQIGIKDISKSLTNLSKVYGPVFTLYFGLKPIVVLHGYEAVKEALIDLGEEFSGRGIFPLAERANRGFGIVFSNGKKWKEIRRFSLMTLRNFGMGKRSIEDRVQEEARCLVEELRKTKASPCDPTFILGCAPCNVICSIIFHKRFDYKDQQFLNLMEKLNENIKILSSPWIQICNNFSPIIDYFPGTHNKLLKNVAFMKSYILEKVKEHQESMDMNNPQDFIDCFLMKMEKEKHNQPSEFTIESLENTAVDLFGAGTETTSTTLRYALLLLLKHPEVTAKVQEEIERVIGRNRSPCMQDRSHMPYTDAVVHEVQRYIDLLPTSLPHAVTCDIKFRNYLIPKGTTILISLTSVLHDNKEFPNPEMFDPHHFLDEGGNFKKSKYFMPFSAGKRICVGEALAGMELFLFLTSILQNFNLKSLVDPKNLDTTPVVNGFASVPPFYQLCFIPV

[21] = Fraction unbound in rat plasma; format: ADME, cell-free
P-gp (ABCB1) = P-gp (ABCB1) (Homo sapiens, UniProt P08183); test: Substrate activity at P-gp in human Caco-2 cells assessed as efflux ratio of permeability
Cytochrome P450 3A4 [22] = target: T1, Cytochrome P450 3A4; test: Inhibition of CYP3A4 (unknown origin) using testosterone as substrate
Calu-6 [23] = test: Cytotoxicity against human Calu-6 cells assessed as inhibition of growth measured after 72 hrs by CellTiter-Glo luciferase assay; format: functional
[24] = Half life in C57 mouse at 1 mg/kg, iv; format: ADME, organism-based; conditions: in vivo
[25] = Oral bioavailability in C57 mouse; format: ADME, organism-based; conditions: in vivo
[26] = Clearance in C57 mouse at 1 mg/kg, iv; format: ADME, organism-based; conditions: in vivo
[27] = AUC (0 to t) in C57 mouse at 2 mg/kg, IG; format: ADME, organism-based; set-up: dose 2 mg/kg; conditions: in vivo, po
[28] = Cmax in Sprague-Dawley rat plasma at 20 mg/kg, IG by LC-MS/MS analysis; format: ADME, organism-based; set-up: route […], dose 20 mg/kg; conditions: po
Calu-6 [29] = test: Antitumor activity against human Calu-6 cells xenografted in nude mouse assessed as tumor growth inhibition at 5 to 30 mg/kg,IT BID for 14 days relative to control; format: functional, organism-based; conditions: dose 5-30 mg/kg, time 14.0 day
[30] = Half life in Sprague-Dawley rat plasma at 1 mg/kg, iv by LC-MS/MS analysis; format: ADME, organism-based; conditions: Sprague-Dawley, plasma
[31] = Cmax in C57 mouse at 2 mg/kg, IG; format: ADME, organism-based; set-up: route […], dose 2 mg/kg; conditions: in vivo, po
[32] = AUC (0 to t) in Sprague-Dawley rat plasma at 20 mg/kg, IG by LC-MS/MS analysis; format: ADME, organism-based; set-up: dose 20 mg/kg; conditions: po
[33] = Clearance in Sprague-Dawley rat plasma at 1 mg/kg, iv by LC-MS/MS analysis; format: ADME, organism-based
[34] = target: T3, Eukaryotic translation initiation factor 2-alpha kinase 3 (Homo sapiens) (UniProt Q9NZJ5); test: Inhibition of human His-tagged PERK by TR-FRET assay
T3 sequence (whole entry): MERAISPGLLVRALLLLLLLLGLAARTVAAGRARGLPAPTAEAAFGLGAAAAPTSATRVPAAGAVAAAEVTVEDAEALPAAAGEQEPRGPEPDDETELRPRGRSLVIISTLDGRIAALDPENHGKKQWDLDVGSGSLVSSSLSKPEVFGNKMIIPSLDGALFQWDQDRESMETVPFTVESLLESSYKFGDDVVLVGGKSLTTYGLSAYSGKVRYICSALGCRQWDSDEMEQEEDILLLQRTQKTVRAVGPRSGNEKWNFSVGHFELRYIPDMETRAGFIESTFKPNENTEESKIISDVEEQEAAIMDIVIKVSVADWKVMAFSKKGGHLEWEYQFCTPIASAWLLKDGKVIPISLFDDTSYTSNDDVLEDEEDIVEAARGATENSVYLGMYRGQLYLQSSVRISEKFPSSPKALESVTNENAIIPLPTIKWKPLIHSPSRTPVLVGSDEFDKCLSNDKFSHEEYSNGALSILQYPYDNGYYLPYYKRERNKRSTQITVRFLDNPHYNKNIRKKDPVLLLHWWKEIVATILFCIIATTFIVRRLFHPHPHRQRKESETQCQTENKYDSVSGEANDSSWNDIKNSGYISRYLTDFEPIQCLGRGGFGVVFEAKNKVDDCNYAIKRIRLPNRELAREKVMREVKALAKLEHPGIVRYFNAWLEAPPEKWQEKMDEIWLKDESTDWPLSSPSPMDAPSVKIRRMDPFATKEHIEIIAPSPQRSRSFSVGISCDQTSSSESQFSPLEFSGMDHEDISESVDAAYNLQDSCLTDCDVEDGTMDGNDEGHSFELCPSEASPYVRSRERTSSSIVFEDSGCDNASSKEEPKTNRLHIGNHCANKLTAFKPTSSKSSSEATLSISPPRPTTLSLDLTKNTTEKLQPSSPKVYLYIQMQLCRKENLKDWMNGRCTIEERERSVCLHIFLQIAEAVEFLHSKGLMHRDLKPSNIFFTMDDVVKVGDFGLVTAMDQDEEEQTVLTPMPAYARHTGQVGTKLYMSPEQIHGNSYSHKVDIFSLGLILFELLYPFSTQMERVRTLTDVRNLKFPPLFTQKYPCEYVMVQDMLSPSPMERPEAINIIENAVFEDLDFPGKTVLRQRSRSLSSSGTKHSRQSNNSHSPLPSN

[35] = Toxicity in nude mouse assessed as reduction in body weight measured at 5 to 30 mg/kg,IT BID for 14 days; format: organism-based; conditions: in vivo, other, 336 h, dose 5-30 mg/kg, time 14 day

Row | Compound | solubility [4] [µM] | GI50 (NCI-H358) [nM] | inhibition in vivo at 30 mg/kg (Calu-6 [5]) [%] | pIC50 [6] | pIC50 [10] | fraction unbound [12] | fraction unbound [13] | half-life [14] [min] | Cmax [15] [ng/mL] | GI50 (SK-MEL-2) [nM] | pIC50 [17] | half-life [18] [min] | half-life [20] [min] | GI50 (A-375) [nM] | fraction unbound [21] | GI50 (Calu-6 [23]) [nM] | further results
1 | Cc1ccc(NC(=O)c2cc(C(F)(F)F)cnn2)cc1-c1ccc2c(c1)OC1(CCOCC1)CC(=O)N2COP(=O)(O)O | – | – | – | – | – | – | – | – | – | – | – | – | – | – | – | – | Cmax [1]: 2848 ng/mL; Cmax [2]: 10740 ng/mL; AUCt [3]: 132.78 µg·h/mL
2 | Cc1ccc(NC(=O)c2ccnc(C(F)(F)F)c2)cc1-c1cc(OCCO)nc(N2CCOCC2)c1 [NAPORAFENIB] | 26 (≈ 13.1 µg/mL) | 3000 | 67 | 8.07 | – | – | – | – | – | – | – | – | – | – | – | – | –
3 | Cc1ccc(NC(=O)c2ccnc(C(F)(F)F)c2)cc1-c1ccc2c(c1)OC1(CCOCC1)CC(=O)N2 | 0.9 (≈ 0.46 µg/mL) | 1700 | 41 | 8.29 | 7.96 | 0.012 | 0.004 | 44.9 | 47.3 | 230 | 7.92 | > 139 | 139 | 150 | 0.009 | 350 | pIC50 (Cytochrome P450 3A4 [7]): < 4.52; Papp B→A [8]: 39.8 ×10⁻⁶ cm/s; Papp A→B [9]: 15.7 ×10⁻⁶ cm/s; pIC50 (Cytochrome P450 2C19): < 4.52; pIC50 [11]: 5.52; pIC50 (Cytochrome P450 2D6): < 4.52; F [16]: 18.7%; pIC50 (Cytochrome P450 1A2): < 4.52; AUCt ([19]; in vivo): 3.12 ng·h/mL; pIC50 (Cytochrome P450 2C9): 4.99; efflux ratio (P-gp (ABCB1)): 2.53; pIC50 (Cytochrome P450 3A4 [22]): 4.88
4 | Cc1ccc(NC(=O)c2cc(C(F)(F)F)cnn2)cc1-c1ccc2c(c1)OC1(CCOCC1)CC(=O)N2 | – | 1400 | – | 8.80 | 8.24 | 0.018 | 0.006 | 74.2 | 956 | 320 | 8.00 | > 139 | 106 | 170 | 0.06 | 400 | half-life [24]: 216 min; bioavailability [25]: 112%; clearance [26]: 6.8 mL/min/kg; AUC(0-t) [27]: 5410 ng·h/mL; Cmax [28]: 2810 ng/mL; TGI (Calu-6 [29]): Dose-Dependent Effect; half-life [30]: 96 min; Cmax [31]: 953 ng/mL; AUC(0-t) [32]: 21800 ng·h/mL; bioavailability ([16]; Sprague-Dawley): 101%; clearance [33]: 7.2 mL/min/kg; AUC(0-t) ([19]; Sprague-Dawley, plasma): 4700 ng·h/mL; inhibition [34]: Active; Activity [35]: Non-Toxic
